Test results published in the supplement of paper PMC12137928.
Counter-ions that a name gives are not always drawn.

Test system: HCT116
Settings: 72 h
How it was run: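 For IC50 and maximal efficacy, four-parameter Hill fits were used. Input values were CellTiter-Glo luminescence from HCT116 cells seeded at 250 per well in 1536-well plates, normalized to vehicle (0%) and positive control (-100%). Pattern correction followed normalization.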

Row | SMILES | IC50 cell viability (ICRF193 0 nM) [µM] | IC50 cell viability (ICRF193 200 nM) [µM]
1 | CC(Oc1c(Cl)cccc1Cl)C1=NCCN1 (stereo unspecified) [Lofexidine] | > 45.8 | > 45.8
2 | CCC(Cc1c(I)cc(I)c(N)c1I)C(=O)O (stereo unspecified) [Iopanoic acid] | > 45.8 | > 45.8
3 | Cc1cccc(C)c1NC(=O)c1cc(S(N)(=O)=O)c(Cl)cc1O [Xipamide] | > 45.8 | > 45.8
4 | CC(C)c1cccc(C(C)C)c1O [Propofol] | > 45.8 | > 45.8
5 | CC(=O)[C@H]1CC[C@H]2[C@@H]3CC=C4C[C@@H](O)CC[C@]4(C)[C@H]3CC[C@]12C [Pregnenolone] | > 45.8 | > 45.8
6 | Nc1ccc(C(=O)O)cc1 [4-Aminobenzoic acid] | > 45.8 | > 45.8
7 | Nc1nc2[nH]cc(CCc3ccc(C(=O)N[C@@H](CCC(=O)O)C(=O)O)cc3)c2c(=O)[nH]1 [Pemetrexed disodium heptahydrate] | > 45.8 | > 45.8
8 | CC1CCCCN1CCCOC(=O)c1ccccc1 (stereo unspecified) [Piperocaine hydrochloride] | > 45.8 | > 45.8
9 | CCCCCOc1ccc(-c2ccc(-c3ccc(C(=O)N[C@H]4C[C@@H](O)[C@@H](O)NC(=O)[C@@H]5[C@@H](O)[C@@H](C)CN5C(=O)[C@H]([C@@H](C)O)NC(=O)[C@H]([C@H](O)[C@@H](O)c5ccc(O)cc5)NC(=O)[C@@H]5C[C@@H](O)CN5C(=O)[C@H]([C@@H](C)O)NC4=O)cc3)cc2)cc1 [Anidulafungin] | > 45.8 | > 45.8
10 | Cc1ccc(/C=N/n2c(-c3ccccc3)csc2=S)cc1 [Fezatione] | > 45.8 | > 45.8
11 | Cc1ccccc1-c1cc(N2CCN(C)CC2)ncc1N(C)C(=O)C(C)(C)c1cc(C(F)(F)F)cc(C(F)(F)F)c1 [Netupitant] | > 45.8 | > 45.8
12 | CCC1(c2ccccc2)C(=O)NCNC1=O [Primidone] | > 45.8 | > 45.8
13 | C#CC(O)(/C=C/Cl)CC (stereo unspecified) [Ethchlorvynol] | > 45.8 | > 45.8
14 | COc1ccc(OC)c(C(O)CNC(=O)CN)c1 (stereo unspecified) [Midodrine hydrochloride] | > 45.8 | > 45.8
15 | CC(=O)Nc1c(I)c(NC(C)=O)c(I)c(C(=O)O)c1I [Diatrizoic acid dihydrate] | > 45.8 | > 45.8
16 | CC(=O)N(CC(O)CO)c1c(I)c(C(=O)NCC(O)CO)c(I)c(C(=O)NCC(O)CO)c1I (stereo unspecified) [Iohexol] | > 45.8 | > 45.8
17 | CC(C)[C@H]1CC[C@H](C)C[C@@H]1O [(1S,2R,5S)-(+)-Menthol] | > 45.8 | > 45.8
18 | N[C@H]1C(O)O[C@H](CO)[C@@H](O)[C@@H]1O (stereo partly specified) [Glucosamine hydrochloride] | > 45.8 | > 45.8
19 | O=c1[nH]c(=O)n([C@H]2C[C@H](O)[C@@H](CO)O2)cc1I [Idoxuridine] | > 45.8 | > 45.8
20 | CCCCCCCCCCCCCCCCCCCCCCO [Docosanol] | > 45.8 | > 45.8
21 | CCCCC(CC)CCC(CC(C)C)OS(=O)(=O)O (stereo unspecified) [SODIUM TETRADECYL SULFATE] | > 45.8 | > 45.8

Row | SMILES | IC50 cell viability (ICRF193 0 nM) [µM] | IC50 cell viability (ICRF193 200 nM) [µM]
22 | CN1C(=O)CCS(=O)(=O)C1c1ccc(Cl)cc1 (stereo unspecified) [Chlormezanone] | > 45.8 | > 45.8
23 | CC(=O)N(CC(O)CO)c1c(I)c(C(=O)NCCO)c(I)c(C(=O)NCC(O)CO)c1I (stereo unspecified) [Ioxilan] | > 45.8 | > 45.8
24 | Cc1cc(O)c(C(C)C)cc1Cl [6-Chlorothymol] | > 45.8 | > 45.8
25 | Oc1cc(O)c2c(c1)O[C@H](c1ccc(O)c(O)c1)[C@H](O)C2 [(-)-Epicatechin] | > 45.8 | > 45.8
26 | CN1[C@@H]2CC[C@H]1C[C@@H](OC(c1ccccc1)c1ccccc1)C2 [Benztropine mesylate] | > 45.8 | > 45.8
27 | COc1cc2c3cc1Oc1cc(ccc1O)C[C@@H]1c4c(cc(OC)c(O)c4Oc4ccc(cc4)C[C@@H]3N(C)CC2)CC[N+]1(C)C [(+)-Tubocurarine chloride hydrochloride] | > 45.8 | > 45.8
28 | Cc1cc2nc3c(=O)[nH]c(=O)nc-3n(C[C@H](O)[C@H](O)[C@H](O)COP(=O)(O)OP(=O)(O)OC[C@H]3O[C@@H](n4cnc5c(N)ncnc54)[C@H](O)[C@@H]3O)c2cc1C [Flavin adenine dinucleotide disodium salt hydrate] | > 45.8 | > 45.8
29 | CCC(CC)(CNC(=O)CCCO)c1cccc(OC)c1 [Embutramide] | > 45.8 | > 45.8
30 | COc1ccc([C@@H]2Sc3ccccc3N(CCN(C)C)C(=O)[C@@H]2OC(C)=O)cc1 [Diltiazem] | > 45.8 | > 45.8
31 | N=C1NC(=O)N2CC12 (stereo unspecified) [IMEXON] | > 45.8 | > 45.8
32 | CC1(C)S[C@@H]2[C@H](N)C(=O)N2[C@H]1C(=O)O [6-Aminopenicillanic acid] | > 45.8 | > 45.8
33 | Nc1ccn([C@H]2CC[C@@H](CO)O2)c(=O)n1 [2',3'-Dideoxycytidine] | > 45.8 | > 45.8
34 | CC(=O)N[C@@H](Cc1ccc(O)cc1)C(=O)O [N-Acetyl-L-tyrosine] | > 45.8 | > 45.8
35 | CCN(CC)CCOC(=O)c1ccc(N)cc1Cl [Chloroprocaine HCl] | > 45.8 | > 45.8
36 | CC(C)C(=O)Nc1cccc(C2CN3CCSC3=N2)c1 (stereo unspecified) [Butamisole] | > 45.8 | > 45.8
37 | CC(C)(CO)[C@@H](O)C(=O)NCCC(=O)O [Pantothenic acid] | > 45.8 | > 45.8
38 | O=S(=O)(O)c1ccc2[nH]c(-c3ccccc3)nc2c1 [Ensulizole] | > 45.8 | > 45.8
39 | CN1CCN2c3ncccc3Cc3ccccc3C2C1 (stereo unspecified) [Mirtazapine] | > 45.8 | > 45.8
40 | C(=C\c1ccccc1)/CN1CCN(C(c2ccccc2)c2ccccc2)CC1 [Cinnarizine] | > 45.8 | > 45.8
41 | C[N@+]1(CC2CC2)CC[C@]23c4c5ccc(O)c4O[C@H]2C(=O)CC[C@@]3(O)[C@H]1C5 [Methylnaltrexone Bromide] | > 45.8 | > 45.8
42 | Cc1ccc(C(C)C)cc2c(C)ccc1-2 [Guaiazulene] | > 45.8 | > 45.8

Row | SMILES | IC50 cell viability (ICRF193 0 nM) [µM] | IC50 cell viability (ICRF193 200 nM) [µM]
43 | Cn1cc(C2=C(c3cn(C4CCN(Cc5ccccn5)CC4)c4ccccc34)C(=O)NC2=O)c2ccccc21 [Enzastaurin] | > 45.8 | > 45.8
44 | COc1ccc([C@]2(C#N)CC[C@@H](C(=O)O)CC2)cc1OC1CCCC1 [Cilomilast] | > 45.8 | > 45.8
45 | CC(C)(C)NCC(O)c1cc(O)cc(O)c1 (stereo unspecified) [Terbutaline hemisulfate] | > 45.8 | > 45.8
46 | CCN1CCCC1=O [1-Ethyl-2-pyrrolidinone] | > 45.8 | > 45.8
47 | CC=CC1=C(C(=O)O)N2C(=O)[C@@H](NC(=O)[C@H](N)c3ccc(O)cc3)[C@H]2SC1 [Cefprozil] | > 45.8 | > 45.8
48 | CC(=O)/N=c1/sc(S(N)(=O)=O)nn1C [Methazolamide] | > 45.8 | > 45.8
49 | CN1[C@@H]2C[C@@H](OC(=O)[C@H](CO)c3ccccc3)C[C@H]1[C@@H]1O[C@@H]12 [Scopolamine hydrobromide] | > 45.8 | > 45.8
50 | CN1CCC[C@@H]1c1cccnc1 [D-Nicotine] | > 45.8 | > 45.8
51 | Cc1nnc(C(C)C)n1C1C[C@H]2CC[C@@H](C1)N2CC[C@H](NC(=O)C1CCC(F)(F)CC1)c1ccccc1 (stereo in doubt) [Maraviroc] | > 45.8 | > 45.8
52 | CCN(CC)CCOC(=O)C1(c2ccccc2)CCCC1 [Caramiphen edisylate] | > 45.8 | > 45.8
53 | CCN(CC)CCCC(C)Nc1ccnc2cc(Cl)ccc12 (stereo unspecified) [Chloroquine] | > 45.8 | > 45.8
54 | CCCCc1ncc(/C=C(\Cc2cccs2)C(=O)O)n1Cc1ccc(C(=O)O)cc1 [Eprosartan mesylate] | > 45.8 | > 45.8
55 | Cc1ccccc1OCC(O)CO (stereo unspecified) [Mephenesin] | > 45.8 | > 45.8
56 | O=C1CCCC(=O)C1C(=O)c1ccc(C(F)(F)F)cc1[N+](=O)[O-] [Nitisinone] | > 45.8 | > 45.8
57 | CCC(=O)OCC(=O)[C@@]1(OC(=O)CC)[C@@H](C)C[C@H]2[C@@H]3CCC4=CC(=O)C=C[C@]4(C)[C@@]3(F)[C@@H](O)C[C@@]21C [BETAMETHASONE 17,21-DIPROPIONATE] | > 45.8 | > 45.8
58 | CCN(CC)C(=O)N[C@@H]1C=C2c3cccc4[nH]cc(c34)C[C@@H]2N(C)C1 [(-)-(5S,8R)-Lisuride] | > 45.8 | > 45.8
59 | Cn1c(=O)c2c(ncn2CC(O)CO)n(C)c1=O (stereo unspecified) [Dyphylline] | > 45.8 | > 45.8
60 | CCC(=O)Oc1ccc2c(c1)CCC1C2CCC2(C)C(OC(=O)CC)CCC12 (stereo not drawn) [17-BETA-ESTRADIOL 3,17-DIPROPIONATE] | > 45.8 | > 45.8
61 | C#C[C@]1(O)CC[C@H]2[C@@H]3CCC4=C(CCC(=O)C4)[C@H]3CC[C@@]21C [NORETHYNODREL] | > 45.8 | > 45.8
62 | C1CCC(NC2CCCCC2)CC1 [Dicyclohexylamine] | > 45.8 | > 45.8
63 | CCCc1nc(C(C)(C)O)c(C(=O)O)n1Cc1ccc(-c2ccccc2-c2nnn[nH]2)cc1 [Olmesartan] | > 45.8 | > 45.8
